# Laboratory results taken from ChEMBL document CHEMBL1157209, “QSAR study on a novel series of 8-azaadenine analogues proposed as A1 adenosine receptor antagonists” (Eur J Med Chem, 2008).
# Molecular target: T1, Adenosine receptor A1 (Bos taurus, UniProt P28190)
# T1 sequence (P28190 whole entry): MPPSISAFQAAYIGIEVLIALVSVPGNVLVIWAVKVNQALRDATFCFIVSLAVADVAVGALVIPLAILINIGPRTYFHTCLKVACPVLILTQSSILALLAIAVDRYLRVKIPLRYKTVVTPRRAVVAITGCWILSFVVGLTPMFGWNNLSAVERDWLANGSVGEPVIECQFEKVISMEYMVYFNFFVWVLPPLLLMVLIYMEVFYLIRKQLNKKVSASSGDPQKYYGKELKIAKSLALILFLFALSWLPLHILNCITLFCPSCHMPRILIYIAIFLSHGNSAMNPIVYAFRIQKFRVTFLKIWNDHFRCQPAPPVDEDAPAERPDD
# Assay: Binding affinity to bovine adenosine A1 receptor
row,Compound,Ki
1,c1ccc(Cn2nnc3c(NC4CCCCC4)nc(-c4ccccc4)nc32)cc1,1.6 nM
2,OC1CCC(Nc2nc(-c3ccccc3)nc3c2nnn3Cc2ccccc2)CC1 (stereo not drawn),2.7 nM
3,OC1CCC(Nc2nc(-c3ccccc3)nc3c2nnn3Cc2ccccc2Cl)CC1 (stereo not drawn),3.1 nM
4,OC1CCC(Nc2nc(-c3ccccc3)nc3c2nnn3Cc2ccccc2F)CC1 (stereo not drawn),1.85 nM
5,COc1ccc(C(=O)Nc2nc(-c3ccccc3)nc3c2nnn3Cc2ccccc2F)cc1,21.9 nM
6,COc1ccc(C(=O)Nc2nc(-c3ccccc3)nc3c2nnn3Cc2ccccc2)cc1,3.24 nM
7,O[C@H]1CCCC[C@@H]1Nc1nc(-c2ccccc2)nc2c1nnn2Cc1ccccc1,10.3 nM
8,COc1ccc(C(=O)Nc2nc(-c3ccccc3)nc3c2nnn3Cc2ccccc2Cl)cc1,20 nM
